One assay relates to BV-2 cells. Nature of the assay: LPS-induced NO production in BV-2 cells (Griess method). The format is cell-based, murine. To be noted: 1 μg/ml LPS, 24 h. As to the method: BV-2 cells (murine microglia cell line) was obtained from Peking Union Medical College, Cell Bank (Beijing, China) and maintained in DMEM containing 10% FBS. Cells were grown in a humidified atmosphere of 5% CO2 incubator at 37°C.
BV2 cells were seeded and incubated overnight, and followed by treatment with different doses of circumdatins for indicated period with or without LPS (1 μg/ml) stimulation. The cells without circumdatins and LPS treatment were used as the control group.
The NO levels in culture media was determined using a Griess method. Cells were treated with different concentrations of circumdatins in the presence or absence of LPS for 24 h. After that, the supernatant fraction of the culture media was collected and mixed with the same volume of Griess reagent (1% sulfanilamide/0.1% naphthyl ethylene diamine dihydrochloride/2% H3PO4). Then, the absorbance was measured at 540 nm using a microplate spectrophotometer (Thermo Scientifics, USA). The concentration of nitrite was calculated from a calibration curve obtained from standards sodium nitrite solutions.
A general note: The Griess reaction detects nitrite, a stable product of nitric oxide.

A further assay addresses Recombinant AChE (Homo sapiens, UniProt P22303). Put plainly: biochemical. The settings on record: SPR, 25°C, 1:1 Langmuir binding model; read-out: AChE Affinity Kd. The procedure:
The experiments for surface plasmon resonance (SPR) interaction were conducted at 25°C using the Biacore T200 system (GE Healthcare, Sweden). Recombinant AChE diluted in sodium acetate buffer (100 mM, pH 4.5) was used as the stock for the following experiments. CM5 sensor chips were coupled with AChE using an amine coupling kit (GE Healthcare, Buckinghamshire, UK). Thereafter, different concentrations of compounds were injected as analytes using PBS-P (10mM phosphate buffer with 2.7 mM KCl and 137 mM NaCl, 0.05% polysorbate 20, […]) as running buffer. For binding assays, the analytes were introduced with a 60 s contact time followed by a 60 s dissociation time at a flow rate of 45 μl/min. The surface was regenerated with 10 mM glycine (pH 3.0) for 30 s. The affinity constants were calculated using the 1:1 Langmuir binding model of Biacore evaluation software (T200 Version 1.0).

Another assay concerns NF-κB. Nature of the assay: NF-κB luciferase reporter assay. The format is cell-based. To be noted: Homo sapiens; SW480 cells stably transfected with NF-κB luciferase reporter gene, induced by LPS; mean ± SD (n = 3); read-out: NF-κB Activation IC50. As to the method:
SW480-NF-κB cells were seeded at a density of 5 × 10^4 cells/well in 24-well plates and incubated with circumdatins with or without LPS stimulation for 6 h. The κB-dependent luciferase reporter activity in cell extracts was monitored using an automated microplate reader.

Assay [1] concerns the target T1, acetylcholinesterase (AChE) from Electrophorus electrics (Electric eel) (Electrophorus electricus, UniProt O42275).
T1 construct: purchased Sigma Chemical Co. (St Louis, MO, USA)
Put plainly: biochemical. The settings on record: modified Ellman's colorimetric method; mean ± SD (n = 3). The text has this:
Dulbecco's modified Eagle medium (DMEM), α-minimum essential medium (α-MEM) and fetal bovine serum (FBS) were provided by Hyclone (Waltham, USA). 3-(4,5-Dimethylthiazol-2-yl)-2,5-diphenyltetrazolium bromide (MTT), acetylcholinesterase (AChE) from Electrophorus electrics (Electric eel) and lipopolysaccharide (LPS) (Escherichia coli 055: B5) were provided by Sigma Chemical Co. (St Louis, MO, USA). Enzyme-linked immunosorbent assay (ELISA) kits for IL-1β and TNF-α and Griess reagent for nitric oxide (NO) assay kit were provided by ExCell Bio (Shanghai, China). Antibodies for TLR4, MyD88, JNK, p-JNK, p38, p-p38, ERK, p-ERK, IκB, p-IκB, IKK, p-IKK, NF-κB, STAT3、p-STAT3、Jak2, p-Jak2, GAPDH and Histone H3 were purchased from Cell Signaling Technology (Danvers, USA). Antibodies for iNOS and COX-2 were provided by Abcam (Cambridge, UK).
AChE activities in vitro and in vivo were assessed by a modified Ellman's spectrophotometric method ([Szwajgier, 2015]). Briefly, AChE (80 μl) in phosphate buffer (Na2HPO4/NaH2PO4, pH 8.0) and compound (20 μl) diluted in same phosphate buffer were added to 96 microplates as the reaction mixture. The mixture was incubated at 37°C for 30 min before addition of 10 μl 5,5′-dithiobis (2-nitrobenzoic acid) (DTNB) (3 mM) and 10 μl acetylthiocholine iodide (ATCI) (15 mM). After incubation for 20 min, the absorbance was detected at 412 nm using a microplate spectrophotometer (Thermo Scientifics, USA). […] The inhibitory rate of AChE was calculated, and the IC50 values were calculated by GraphPad Prism® 5.0 software (GraphPad Inc., San Diego, USA).
For orientation: Ellman's reagent forms a yellow product with free thiols.

T1 sequence (O42275 24-633): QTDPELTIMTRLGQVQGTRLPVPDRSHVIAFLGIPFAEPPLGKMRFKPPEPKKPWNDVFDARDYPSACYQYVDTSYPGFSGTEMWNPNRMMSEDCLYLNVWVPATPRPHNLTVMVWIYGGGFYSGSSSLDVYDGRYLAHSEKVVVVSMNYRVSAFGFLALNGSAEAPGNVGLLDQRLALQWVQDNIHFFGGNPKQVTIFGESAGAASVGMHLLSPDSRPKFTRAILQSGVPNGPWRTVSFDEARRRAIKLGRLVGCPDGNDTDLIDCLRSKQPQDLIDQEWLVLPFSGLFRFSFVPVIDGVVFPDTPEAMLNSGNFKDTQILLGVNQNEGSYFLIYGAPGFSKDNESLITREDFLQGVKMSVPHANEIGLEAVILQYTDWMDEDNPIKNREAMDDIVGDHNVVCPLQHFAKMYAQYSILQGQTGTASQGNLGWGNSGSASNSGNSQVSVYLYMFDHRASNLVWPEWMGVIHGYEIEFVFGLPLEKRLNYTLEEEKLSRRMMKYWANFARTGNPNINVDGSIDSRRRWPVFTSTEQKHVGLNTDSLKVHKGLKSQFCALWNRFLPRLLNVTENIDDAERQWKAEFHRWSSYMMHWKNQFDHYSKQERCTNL
Sequence of Recombinant AChE (P22303 32-614): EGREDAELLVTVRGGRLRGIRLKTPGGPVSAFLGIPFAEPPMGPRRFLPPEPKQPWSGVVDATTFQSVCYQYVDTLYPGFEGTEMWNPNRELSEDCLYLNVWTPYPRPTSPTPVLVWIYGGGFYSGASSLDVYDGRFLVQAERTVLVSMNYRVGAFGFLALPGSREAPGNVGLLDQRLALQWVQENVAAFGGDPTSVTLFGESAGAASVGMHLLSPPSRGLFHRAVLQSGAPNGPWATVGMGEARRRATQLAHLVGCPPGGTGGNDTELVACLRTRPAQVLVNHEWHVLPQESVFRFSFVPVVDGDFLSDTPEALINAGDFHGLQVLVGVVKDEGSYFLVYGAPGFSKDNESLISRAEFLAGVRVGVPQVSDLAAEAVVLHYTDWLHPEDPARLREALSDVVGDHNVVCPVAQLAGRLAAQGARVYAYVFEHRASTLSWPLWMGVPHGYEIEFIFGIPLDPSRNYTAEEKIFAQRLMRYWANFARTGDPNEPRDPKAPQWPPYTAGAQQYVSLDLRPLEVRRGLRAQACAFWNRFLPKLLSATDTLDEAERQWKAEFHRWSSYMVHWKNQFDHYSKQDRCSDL

As a reminder, the Kd is a measure of binding affinity in units of concentration. What is called IC50 is the midpoint of a concentration-inhibition curve. Regarding `C[C@@H]1NC(=O)c2ccccc2-n2c1nc1c(O)cccc1c2=O` [circumdatin G], in the assay with BV-2 cells, the “LPS-induced NO production” value is recorded as “significant reduction of NO levels”. Moreover, the dissociation constant (Kd) at Recombinant AChE is 120 µM. Besides, the 50% inhibitory concentration (IC50) came out at 18.9 ± 2.1 µM with NF-κB and 15.8 ± 2 µM in assay [1].
In the case of `C[C@@H]1NC(=O)c2ccccc2-n2c1nc1ccccc1c2=O` [circumdatin F], the “LPS-induced NO production” value in the assay with BV-2 cells is “decreased NO production only in high dose”. Also, the Kd at Recombinant AChE was found to be 240 µM. Moreover, the values for the IC50 (in the assay with NF-κB; in assay [1]) were 11.8 ± 0.9 µM and 10 ± 1.9 µM, respectively.
With `C[C@@H]1NC(=O)c2cc(O)ccc2-n2c1nc1ccccc1c2=O` [circumdatin C], in the assay on BV-2 cells, the “LPS-induced NO production” value is recorded as “decreased NO production only in high dose”. At Recombinant AChE, the Kd was found to be 85 µM. Besides, the IC50 in the assay on NF-κB came out at 15.6 ± 2.3 µM.
As for `C[C@@H]1NC(=O)c2cc(O)ccc2-n2c1nc1c(O)cccc1c2=O` [circumdatin I], the “LPS-induced NO production” value with BV-2 cells is recorded as “decreased NO production only in high dose”. At Recombinant AChE, the dissociation constant Kd was found to be 65 µM. Further, the values for the IC50 (with NF-κB; in assay [1]) were 18.6 ± 1.9 µM and 11.6 ± 2.6 µM, respectively.
On the same counts, the results for `COc1ccc2nc3n(c(=O)c2c1)-c1ccccc1C(=O)N1CCC[C@@H]31` [circumdatin H] are “decreased NO production only in high dose”, 95 µM, 33.3 ± 1.4 µM and 98 ± 5.7 µM.
Take `C[C@@H]1NC(=O)c2cc(O)c(O)cc2-n2c1nc1ccccc1c2=O` [2-hydroxycircumdatin C]: the Kd at Recombinant AChE amounted to 3.6 µM. Moreover, the values for the IC50 (with NF-κB; in assay [1]) were 16.5 ± 1.9 µM and 5.6 ± 0.9 µM, respectively.

The values above are taken from paper PMC7261837, “Circumdatin D Exerts Neuroprotective Effects by Attenuating LPS-Induced Pro-Inflammatory Responses and Downregulating Acetylcholinesterase Activity In Vitro and In Vivo” (Frontiers in Pharmacology, 2020).
